In patent US20240335462A1, “SULFUR/PHOSPHORUS-CONTAINING ARYL COMPOUND AND APPLICATION THEREOF” (MEDSHINE DISCOVERY INC., priority 2021, published 2024):
Where a name gives a salt, the structure may show the parent alone. Read-outs that look alike come from different tables or passages of the source. Marks after values point to notes of the source that are not given here. Each block holds one molecule with its values, some of them ahead of it.

Key:
[1] = target: Ba/F3-FL-TYK2-E957D cells (Homo sapiens, UniProt P29597, E957D, cells depend on it); test: Proliferation of Ba/F3-FL-TYK2-E957D cells (CellTiter-Glo); format: cell-based, mouse; conditions: 72 hours, read-out: Half maximal inhibitory concentration IC50 for cells Ba/F3-FL-TYK2-E957D
Chain of Ba/F3-FL-TYK2-E957D cells (P29597 whole entry E957D): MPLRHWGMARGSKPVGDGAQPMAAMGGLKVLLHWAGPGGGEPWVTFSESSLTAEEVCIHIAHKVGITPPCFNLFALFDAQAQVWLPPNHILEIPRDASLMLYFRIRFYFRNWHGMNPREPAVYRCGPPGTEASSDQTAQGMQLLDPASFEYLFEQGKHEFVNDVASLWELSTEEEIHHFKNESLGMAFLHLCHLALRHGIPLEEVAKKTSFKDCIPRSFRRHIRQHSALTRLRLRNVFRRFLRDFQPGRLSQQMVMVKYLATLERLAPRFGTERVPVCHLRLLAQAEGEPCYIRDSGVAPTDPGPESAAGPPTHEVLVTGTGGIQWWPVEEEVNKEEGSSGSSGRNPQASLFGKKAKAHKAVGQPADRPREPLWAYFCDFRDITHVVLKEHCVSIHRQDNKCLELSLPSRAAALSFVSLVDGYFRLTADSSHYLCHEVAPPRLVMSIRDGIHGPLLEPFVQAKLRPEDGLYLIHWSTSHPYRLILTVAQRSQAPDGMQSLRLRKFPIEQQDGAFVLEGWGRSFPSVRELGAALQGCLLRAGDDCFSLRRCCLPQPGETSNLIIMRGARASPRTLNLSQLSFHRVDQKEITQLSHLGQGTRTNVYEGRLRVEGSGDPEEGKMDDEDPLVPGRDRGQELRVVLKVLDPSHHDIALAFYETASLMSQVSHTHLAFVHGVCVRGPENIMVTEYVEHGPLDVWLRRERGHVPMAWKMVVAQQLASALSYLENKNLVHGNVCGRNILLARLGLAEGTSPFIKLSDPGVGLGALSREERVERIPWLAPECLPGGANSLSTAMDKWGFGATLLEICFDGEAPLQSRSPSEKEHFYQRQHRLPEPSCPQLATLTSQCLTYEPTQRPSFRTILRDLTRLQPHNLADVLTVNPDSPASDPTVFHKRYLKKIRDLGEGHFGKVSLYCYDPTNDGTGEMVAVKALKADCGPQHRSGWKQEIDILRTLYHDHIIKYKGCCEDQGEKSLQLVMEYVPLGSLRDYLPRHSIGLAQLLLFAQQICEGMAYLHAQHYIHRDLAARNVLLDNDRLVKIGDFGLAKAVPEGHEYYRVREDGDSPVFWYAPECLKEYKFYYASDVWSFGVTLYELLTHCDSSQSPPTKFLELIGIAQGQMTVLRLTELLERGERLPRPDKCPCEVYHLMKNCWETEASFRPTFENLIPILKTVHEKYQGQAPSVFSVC
Text: Adenosine triphosphate (ATP) serves as a universal energy carrier in various life processes, representing the smallest unit of energy storage and transfer. The CellTiter-Glo™ Luminescent Cell Viability Assay Kit utilizes luciferase as a detection agent. During the luminescent process, luciferase requires the participation of ATP. By adding CellTiter-Glo™ reagent to the cell culture medium and measuring the luminescence, the light signal was directly proportional to the amount of ATP in the system, and ATP was positively correlated with the number of viable cells. Therefore, cell proliferation can be detected by measuring ATP content using the CellTiter-Glo kit. In this test, the cell lines used were Ba/F3-FL-TYK2-E957D and Ba/F3-TEL-TYK2. Ba/F3-FL-TYK2-E957D cells can stably express the exogenously introduced human TYK2-E957D gene, and the TYK2-E957D gene sequence contains both JH1 and JH2 domains. On the other hand, Ba/F3-TEL-TYK2 cells can stably express the exogenously introduced human TEL-TYK2 gene, and the TEL-TYK2 gene sequence contains only the JH1 domain of TYK2.
The cell lines were cultured in an incubator at 37° C. with 5% CO2. Regular passaging was performed, and cells in the logarithmic growth phase were selected for plating.
• a) The test compounds were prepared into a 10 mM solution with DMSO, and then diluted to 0.3 or 1 mM with DMSO. • b) Preparation of 1000× compound storage plate (tube): The compounds were 3-fold serially diluted from the highest concentration to the lowest concentration, creating 9 different concentrations. • c) Preparation of 20× compound working solution: 49 μL of cell culture medium was added to a flat-bottomed 96-well transparent drug plate. From the 1000× compound storage plate, 1 μL of the compound was pipetted into the cell culture medium in the 96-well transparent drug plate. In the solvent control, 1 μL of DMSO was added. After the compound or DMSO was added, the mixture was homogenized using a multi-channel pipette.
• a) Cells were stained with trypan blue and viable cells were counted to ensure a cell viability of 90% or more. • b) 95 μL of cell suspension (2000 cells/well) was added to each well of the compound assay cell plate, and cell-free culture medium containing 0.1% DMSO was added to the Min control wells. • c) Administration in the compound assay cell plate: 5 μL of 20× compound working solution was added to the cell culture plate. 5 μL of DMSO-cell culture medium mixture was added to the Max control wells. The final concentration of DMSO was 0.1%. • d) The culture plate was then incubated in an incubator at 37° C. with 5% CO2 for 72 hours.
The following steps were conducted in accordance with the instructions of the Promega CellTiter-Glo Luminescent Cell Viability Assay Kit (Promega-G7573). • a) CellTiter-Glo buffer was thawed and brought to room temperature. • b) CellTiter-Glo substrate was also brought to room temperature. • c) CellTiter-Glo buffer was added to a bottle of CellTiter-Glo substrate to dissolve the substrate, thereby preparing CellTiter-Glo working solution. • d) The mixture was slowly vortexed and shaken to be fully dissolved. • e) The cell culture plate was removed and allowed to equilibrate to room temperature for 10 minutes. • f) 50 μL (equal to half the volume of cell culture medium in each well) of CellTiter-Glo working solution was added to each well. • g) The culture plate was shaken on an orbital shaker for 2 minutes to induce cell lysis. • h) The plate was then left at room temperature for 10 minutes to stabilize the luminescent signal. • i) The luminescent signal was detected using a SpectraMax Paradigm plate reader.
Data analysis was conducted using GraphPad Prism 5.0 software. Nonlinear S-curve regression was employed to fit the data and generate dose-response curves. From these curves, the IC50 values were calculated.

[2] = Pharmacokinetic testing in mice; format: in vivo, male CD-1 mice; conditions: mouse; for Vd / AUC(0-t) / half-life / C0 / bioavailability / Cmax / Tmax: male, CD-1, plasma; for Vd: read-out: Apparent volume of distribution Vd; for AUC(0-t): read-out: Area under the curve AUC0-last; for half-life: read-out: Half-life T1/2 (converted); for C0: read-out: Starting concentration C0; for bioavailability: read-out: Bioavailability F %; for Cmax: read-out: Peak concentration Cmax; for Tmax: read-out: Time to peak concentration Tmax
Protocol: The objective was to study the pharmacokinetic behavior of the compound of the present disclosure in mice and evaluate the pharmacokinetic characteristics, using male CD-1 mice aged 7 to 9 weeks as test animals. The drug concentrations in plasma at different time points after a single intravenous injection (IV) and oral administration (PO) of the compound were determined using LC/MS/MS.
The pharmacokinetic characteristics of the compound in rodents following intravenous injection and oral administration were tested using a standard protocol. Test animals were fasted for 10 to 14 hours before administration and allowed to feed 4 hours post-administration. The compound was prepared into a clear solution with the appropriate solvent for both IV (intravenous injection) and PO (oral gavage) administration. The solvent was 10% DMSO+10% solutol+80% (10% HP-β-CD aqueous solution). Whole blood samples were collected within 24 hours, centrifuged at 6000 g for 3 minutes, and the supernatant was separated to obtain plasma samples. Protein precipitation was performed by adding four times the volume of acetonitrile solution containing internal standard to the plasma samples. After centrifugation, the supernatant was added with an equal volume of water and then centrifuged before being subjected to LC-MS/MS analysis for quantifying plasma drug concentration. Pharmacokinetic parameters such as peak concentration, time to peak concentration, clearance, half-life, area under the drug-time curve, and bioavailability were calculated.

[3] = system: IL-23-induced psoriasis-like skin lesions; test: Mouse psoriasis-like model induced by IL-23; format: in vivo, C57BL/6 mice; parameters: Total score for epidermal hyperplasia of ear pinnae / AUC of total score for epidermal hyperplasia of ear pinnae / Pathological score: Degree of keratinization / Pathological score: Epidermal thickness / Pathological score: Dermal thickness / Pathological score: Inflammatory cell infiltration / Comprehensive pathological score: scale not given here
Text: The purpose of this experiment was to evaluate the prophylactic and therapeutic effect of the test substance on IL-23-induced psoriasis-like skin lesions in mice by intradermal injection of IL-23 into the ear pinnae in a psoriasis-like skin lesion model.
Female C57BL/6 mice of qualified body weight were randomly divided into groups, with 6 mice per group. The grouping and administration information was as follows. The groups were: blank control group, model group, positive control Ustekinumab (5 mg/kg) group, WX-011A hydrochloride (30, 50 mg/kg) group, and WX-020 sulfate (30, 50 mg/kg) group. Except for the blank control group, the animals in the other groups received an intradermal injection of IL-23 (3 μg/10 μL/mouse/day, QD) in the right ear for 8 consecutive days (Day 0 to Day 7). The blank control group received an intradermal injection of an equal volume of saline solution (10 μL/mouse/day, QD) in the right ear for 8 consecutive days (Day 0 to Day 7). Concurrent with model induction, the solvent or test drug was orally administered twice a day (Bid) at 6-hour intervals for 8 consecutive days (Day 0 to Day 7). The positive control was subcutaneously injected on Day 0 and Day 3 (a total of 2 doses). During the administration period, the body weight of the animals was monitored every two days. On Day 0, Day 2, Day 4, Day 6 (all before IL-23 injection), and Day 8, the thickness of the right ear of the mice was measured, and the appearance of the ear pinnae was observed and scored.
The compounds were all prepared into a clear solution with 10% DMSO+[…] as a solvent for PO (oral gavage) administration. Administration volume parameters: 10 mL/kg based on the body weight of the mice.
After grouping, IL-23 (3 μg/10 μL/mouse/day, QD) was injected intradermally into the right ears of the mice for 8 consecutive days (Day 0 to Day 7). Measurements of the thickness of the right ear and observations and scoring of the appearance of the ear pinnae were performed on Day 0, Day 2, Day 4, Day 6 (all before IL-23 injection), and Day 8. At the end of the experiment (Day 8), the left ear tissues of the mice from groups G4 to G10 (3 animals per group at each time point) were collected. The right ear, which had been modeled, was excised, an 8 mm ear punch was taken along the edge of the pinna, and its weight was measured. The excised right ear tissues were fixed in formalin for histopathological examination (H&E staining).
Concurrent with model induction, corresponding drug treatment was given for administration. Except for the positive control drug (Ustekinumab), which was subcutaneously injected on Day 0 and Day 3 (once a day), control and test drugs for each dose group were orally administered by gavage twice a day at 6-hour intervals for 8 consecutive days (Day 0 to Day 7).
The pathological scoring of mouse ear tissue sections was conducted according to the criteria in Table 33.
The experimental data are represented as Mean±SD; statistical analysis was performed using IBM SPSS Statistics 21, with p<0.05 considered to indicate a statistically significant difference between the two groups. The effect of the test substance on the thickness of mouse ears in the IL-23 induced mouse pinna epidermal hyperplasia model is shown in Table 34. The effect of the test substance on the total score and AUC for […] induced mouse pinna epidermal hyperplasia is shown in Table 35.

[4] = 5 mg/kg SC on Day 0 and Day 3, Day 0
[5] = 5 mg/kg SC on Day 0 and Day 3, Day 2
[6] = 5 mg/kg SC on Day 0 and Day 3, Day 4
[7] = 5 mg/kg SC on Day 0 and Day 3, Day 6
[8] = 5 mg/kg SC on Day 0 and Day 3, Day 8
[9] = 5 mg/kg SC, right ear H&E sections

Molecule: CNC(=O)c1nnc(NC(=O)C2CC2)cc1Nc1cccc(-c2ccc(S(=N)(=O)C(C)C)nn2)c1OC (single isomer, unassigned) [WX-036B]
GI50 [1]: 17.3 nM

Molecule: CNC(=O)c1nnc(NC(=O)C2CC2)cc1Nc1cccc(-c2ccc(S(=N)(=O)C(C)C)nc2)c1OC (single isomer, unassigned) [WX-037A]
GI50 [1]: 15 nM

Molecule: CNC(=O)c1nnc(NC(=O)C2CC2)cc1Nc1cccc(-c2ccc(S(=N)(=O)C(C)C)nc2)c1OC (single isomer, unassigned) [WX-037B]
GI50 [1]: 17 nM

Molecule: [2H]C([2H])([2H])NC(=O)c1nnc(NC(=O)C2CC2)cc1Nc1cccc(-c2ccc(P(C)(C)=O)cc2)c1OC [Hydrochloride of WX-008]
GI50 [1]: 16 nM

Molecule: CNC(=O)c1nnc(NC(=O)C2CC2)cc1Nc1cccc(-c2ncc(S(=N)(=O)C(C)C)cn2)c1OC (centres unmarked) [WX-011]
Vd ([2]; IV 1 mg/kg): 0.7 L/kg
AUC(0-t) ([2]; IV 1 mg/kg): 4.79 µM·h
half-life ([2]; IV 1 mg/kg): 3.2 h
C0 ([2]; IV 1 mg/kg): 5.42 µM
AUC(0-t) ([2]; PO 10 mg/kg): 25 µM·h
bioavailability ([2]; PO 10 mg/kg): 52%
Cmax ([2]; PO 10 mg/kg): 10.2 µM
Tmax ([2]; PO 10 mg/kg): 0.5 h
Apparent clearance Cl ([2]; IV 1 mg/kg): 6.6 mL/min/kg

Molecule: CNC(=O)c1nnc(NC(=O)C2CC2)cc1Nc1cccc(-c2ccc(S(=N)(=O)C(C)C)cn2)c1OC (centres unmarked) [WX-012]
Vd ([2]; IV 1 mg/kg): 2.9 L/kg
AUC(0-t) ([2]; IV 1 mg/kg): 2.46 µM·h
half-life ([2]; IV 1 mg/kg): 4.4 h
C0 ([2]; IV 1 mg/kg): 2.75 µM
AUC(0-t) ([2]; PO 10 mg/kg): 16.7 µM·h
bioavailability ([2]; PO 10 mg/kg): 68%
Cmax ([2]; PO 10 mg/kg): 12.4 µM
Tmax ([2]; PO 10 mg/kg): 0.3 h
Apparent clearance Cl ([2]; IV 1 mg/kg): 12.8 mL/min/kg

Molecule: Ustekinumab: positive control Ustekinumab (anti-IL-12/IL-23), Selleck, subcutaneously injected [reference compound]
Ear thickness (mm) [3, 4]: 0.196 mm
Total score for epidermal hyperplasia of ear pinnae [3, 4]: 0.00
AUC of total score for epidermal hyperplasia of ear pinnae ([3]; 5 mg/kg SC on Day 0 and Day 3, Day 0 to Day 8): 2.83**
Ear thickness (mm) [3, 5]: 0.277* mm
Total score for epidermal hyperplasia of ear pinnae [3, 5]: 0.00
Ear thickness (mm) [3, 6]: 0.288** mm
Total score for epidermal hyperplasia of ear pinnae [3, 6]: 0.33*
Ear thickness (mm) [3, 7]: 0.316** mm
Total score for epidermal hyperplasia of ear pinnae [3, 7]: 0.67**
Ear thickness (mm) [3, 8]: 0.329* mm
Total score for epidermal hyperplasia of ear pinnae [3, 8]: 0.83**
Comprehensive pathological score [3, 9]: 3.50**
Pathological score: Degree of keratinization [3, 9]: 0.50**
Pathological score: Dermal thickness [3, 9]: 0.67
Pathological score: Epidermal thickness [3, 9]: 1.17**
Pathological score: Inflammatory cell infiltration [3, 9]: 1.17**

More lines, in order of falling GI50 [1], values ahead:

GI50 [1]: 13 nM
Molecule: CCN=S(=O)(c1cnc(-c2cccc(Nc3cc(NC(=O)C4CC4)nnc3C(=O)NC)c2OC)nc1)C(C)C (centres unmarked) [Hydrochloride of WX-015]

GI50 [1]: 12.6 nM
Molecule: [2H]C([2H])([2H])NC(=O)c1cnc(NC(=O)C2CC2)cc1Nc1cccc(-c2ccc(S(C)(=O)=NC)cc2)c1OC (centres unmarked) [Hydrochloride of WX-010]

GI50 [1]: 11.7 nM
Molecule: CCN=S(=O)(c1ccc(-c2cccc(Nc3cc(NC(=O)C4CC4)nnc3C(=O)NC)c2OC)nc1)C(C)C (centres unmarked) [Hydrochloride of WX-016]

GI50 [1]: 10.6 nM
Molecule: [2H]C([2H])([2H])NC(=O)c1cnc(NC(=O)C2CC2)cc1Nc1cccc(-c2ncc(S(=O)(=O)N3CCCC3)cn2)c1OC [Hydrochloride of WX-006]

GI50 [1]: 9.5 nM
Molecule: [2H]C([2H])([2H])NC(=O)c1cnc(NC(=O)C2CC2)cc1Nc1cccc(-c2ccc(S(C)(=O)=O)cc2)c1OC [Hydrochloride of WX-007]

GI50 [1]: 8.3 nM
Molecule: CNC(=O)c1nnc(NC(=O)C2CC2)cc1Nc1cccc(-c2ccc(S(=N)(=O)C(C)C)nn2)c1OC (single isomer, unassigned) [WX-036A]
